From US20200261409A1, “METHODS FOR PAIN TREATMENT USING RESINIFERATOXIN” (priority 2015, published 2020)
Entries after “also recorded” stand apart in the source; their conditions may differ.

What was measured:
[1] = test system: swine with gait asymmetry due to chronic knee pain induced by unilateral ACLT; experiment: Blinded behavioral assessment of the limp in the ACLT knee osteoarthritis model; format: in vivo, Yucatan miniature swine
Description: (§1) The study was approved by the Institutional Animal Care and Use Committee of the Mayo Clinic. Female Yucatan miniature swine (Exemplar Genetics, Sioux Center, Iowa, USA) weighing 25-45 kg at the time of RTX administration were used. For both procedures (i.e., ACLT and PG-ED injection), the pigs were anesthetized by intramuscular injection of Telazol (tiletamine and zolazepam, 5 mg/kg; Fort Dodge Animal Health, Fort Dodge, Iowa, USA), xylazine (2 mg/kg; Akorn, Decatur, Ill., USA), and glycopyrrolate (0.01 mg/kg; Baxter Healthcare, Deerfield, Ill., USA), followed by endotracheal intubation and anesthesia maintenance with 1.5%-2% isoflurane (Piramal Healthcare, Bethlehem, Pa., USA). For antibiotic prophylaxis, the animals were given a single dose of intramuscular ceftiofur (5 mg/kg; Pfizer, New York, N.Y., USA). For postoperative analgesia, the animals received a single dose of slow release buprenorphine (0.18 mg/kg; Wildlife Pharmaceuticals, Windsor, Colo., USA) intramuscularly and then oral carprofen (3 mg/kg; Pfizer Animal Health, New York, N.Y., USA) as needed for the first three postoperative days. For CTF guided PG-ED injection of RTX, a clinical CT scanner (Definition DS, Siemens Healthcare) with interventional CTF hardware and software packages was used. A full CT scan of the lumbosacral 13 spine was first performed to visualize the spinal anatomy and to identify the optimal access routes to the targeted PG-ED segments. The CT scanner acquisition settings were the same as reported previously (J. Pleticha, et al., Pig lumbar spine anatomy and imaging-guided lateral lumbar puncture: A new large animal model for intrathecal drug delivery, J. Neurosci. Methods 216, 10-15 (2013)). Next, a 22 G, 6″ spinal needle with Quincke tip (Kimberly-Clark, Roswell, Ga., USA) was advanced to the PG-ED space following the predetermined trajectory. […]

[2] = test system: sP+ axons in the dorsal horn of the spinal cord; experiment: Substance P (sP) immunohistochemistry of the spinal cord after PG-ED injection; format: in vivo, Yucatan miniature swine
Description: as §1

[3] = test system: other neuronal populations in the spinal cord (NeuN; primary motor neurons); experiment: Neuronal nuclei (NeuN) staining of the spinal cord after PG-ED injection; format: in vivo, Yucatan miniature swine; conditions: PG-ED injection of RTX; FIGS. 3A-3D
Description: as §1, with “used.” for “used. A full CT scan of the lumbosacral 13 spine was first performed to visualize the spinal anatomy and to identify the optimal access routes to the targeted PG-ED segments. The CT scanner acquisition settings were the same as reported previously (J. Pleticha, et al., Pig lumbar spine anatomy and imaging-guided lateral lumbar puncture: A new large animal model for intrathecal drug delivery, J. Neurosci. Methods 216, 10-15 (2013)). Next, a 22 G, 6″ spinal needle with Quincke tip (Kimberly-Clark, Roswell, Ga., USA) was advanced to the PG-ED space following the predetermined trajectory.”

rats = conditions: subcutaneous and epidural administration; cited from earlier work

Structure (SMILES)	weight-bearing asymmetry ([1]; ACLT pigs, intramuscular, unblinded observations)	sP+ axonal terminals in the dorsal horn at injected spinal levels, ACLT animals ([2]; ACLT pigs, n=3 RTX, PG-ED at ipsilateral L4, L5, 51, and S2, FIGS. 4A-4F)	RTX dosed animals with low/none sP histology (blinded observer) ([2]; Example 7, second group of pigs, PG-ED, doses of 1.5 μg and 5 μg, P=0.002)	sP+ axons/fibers in the dorsal horn of the spinal cord at the injected levels ([2]; PG-ED injection, 5 μg RTX in 500 μl diluent per spinal level, blinded analysis, n=10 animals in study, sign test p<0.001)	NeuN staining (spinal cord neurons, motor neurons of the anterior horn) [3]	limp / gait asymmetry, before vs after injection (blinded observers) ([1]; ACLT pigs, n=3 RTX, PG-ED at ipsilateral L4, L5, 51, and S2, 3-5 weeks after administration, sign test p<0.02)	clinically observed pain-related behavior (blinded observer) ([1]; Example 7, pigs with knee osteoarthritis, n=8, PG-ED, p=0.03)	thermal analgesia, time without restoration of pain sensitivity (rats)
CN1CC[C@]23c4c5ccc(O)c4O[C@H]2[C@@H](O)C=C[C@H]3[C@H]1C5 [morphine]	diminished weight-bearing asymmetry							
C=C(C)[C@]12C[C@@H](C)[C@@]34OC(Cc5ccccc5)(O[C@@H]1[C@@H]3C=C(COC(=O)Cc1ccc(O)c(OC)c1)C[C@]1(O)C(=O)C(C)=C[C@@H]41)O2 [RTX]		complete loss of sP+ fibers; also recorded: complete loss of the sP+ axonal terminals	6 of 6	no sP staining; also recorded: complete loss of sP+ axons	unaffected; also recorded: not affected	improvements in symmetric weight bearing; also recorded: improvement of limp in all animals; also recorded: all animals receiving RTX improved; also recorded: significant reversal of gait asymmetry	improved	over 7 days
